Assay results from patent US7635572B2, “Methods for conducting assays for enzyme activity on protein microarrays” (Life Technologies Corporation, priority 2004, dated 2009).
Where two headings read alike, the source gives them in different places.

Assays:
Assay in all cases: Further analysis of a plurality of inhibitors and a plurality of kinases on microarray (Example IX, Table 5);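 also: inhibition of each kinase by the inhibitors is given as a qualitative level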;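 as to Inhibition level, CDKL3: level 0 no or unclear inhibition to Level 2 substantial inhibition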;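 as to Inhibition level, FGFR2: level 0 none or unclear then 1 little or marginal then 2 substantial inhibition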;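 as to Inhibition level, TGFBR2: level 0 none or unclear then 1 little or marginal then 2 substantial inhibition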
Format in all cases: biochemical
[1] = biological target: plurality of kinases (Table 5) (Homo sapiens, UniProt P21802)
plurality of kinases (Table 5) (Homo sapiens, UniProt P21802), sequence (P21802 22-821): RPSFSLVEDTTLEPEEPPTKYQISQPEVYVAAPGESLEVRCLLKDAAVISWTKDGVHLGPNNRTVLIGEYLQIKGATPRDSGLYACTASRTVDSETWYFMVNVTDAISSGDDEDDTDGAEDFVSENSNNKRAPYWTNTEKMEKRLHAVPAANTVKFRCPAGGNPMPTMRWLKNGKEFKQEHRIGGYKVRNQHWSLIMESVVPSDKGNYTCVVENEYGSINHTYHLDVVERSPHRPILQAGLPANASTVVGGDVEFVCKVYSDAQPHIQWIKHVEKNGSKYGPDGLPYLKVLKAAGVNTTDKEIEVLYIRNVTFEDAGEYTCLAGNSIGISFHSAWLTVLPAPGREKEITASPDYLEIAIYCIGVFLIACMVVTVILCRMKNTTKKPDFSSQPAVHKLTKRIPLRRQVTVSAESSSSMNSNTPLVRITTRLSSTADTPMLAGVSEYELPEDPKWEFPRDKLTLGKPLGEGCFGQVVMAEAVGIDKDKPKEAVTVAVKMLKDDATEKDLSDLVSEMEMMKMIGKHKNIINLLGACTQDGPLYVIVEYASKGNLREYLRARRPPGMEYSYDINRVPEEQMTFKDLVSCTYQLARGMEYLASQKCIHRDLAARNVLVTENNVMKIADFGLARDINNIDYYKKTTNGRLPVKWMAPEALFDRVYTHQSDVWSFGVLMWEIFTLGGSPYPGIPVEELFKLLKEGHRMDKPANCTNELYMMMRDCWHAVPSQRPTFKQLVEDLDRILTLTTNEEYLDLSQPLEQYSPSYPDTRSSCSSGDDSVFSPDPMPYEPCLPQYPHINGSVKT

[2] = biological target: T1, plurality of kinases (Table 5) (Homo sapiens, UniProt P54753); conditions: plate B5
T1 sequence (P54753 34-998): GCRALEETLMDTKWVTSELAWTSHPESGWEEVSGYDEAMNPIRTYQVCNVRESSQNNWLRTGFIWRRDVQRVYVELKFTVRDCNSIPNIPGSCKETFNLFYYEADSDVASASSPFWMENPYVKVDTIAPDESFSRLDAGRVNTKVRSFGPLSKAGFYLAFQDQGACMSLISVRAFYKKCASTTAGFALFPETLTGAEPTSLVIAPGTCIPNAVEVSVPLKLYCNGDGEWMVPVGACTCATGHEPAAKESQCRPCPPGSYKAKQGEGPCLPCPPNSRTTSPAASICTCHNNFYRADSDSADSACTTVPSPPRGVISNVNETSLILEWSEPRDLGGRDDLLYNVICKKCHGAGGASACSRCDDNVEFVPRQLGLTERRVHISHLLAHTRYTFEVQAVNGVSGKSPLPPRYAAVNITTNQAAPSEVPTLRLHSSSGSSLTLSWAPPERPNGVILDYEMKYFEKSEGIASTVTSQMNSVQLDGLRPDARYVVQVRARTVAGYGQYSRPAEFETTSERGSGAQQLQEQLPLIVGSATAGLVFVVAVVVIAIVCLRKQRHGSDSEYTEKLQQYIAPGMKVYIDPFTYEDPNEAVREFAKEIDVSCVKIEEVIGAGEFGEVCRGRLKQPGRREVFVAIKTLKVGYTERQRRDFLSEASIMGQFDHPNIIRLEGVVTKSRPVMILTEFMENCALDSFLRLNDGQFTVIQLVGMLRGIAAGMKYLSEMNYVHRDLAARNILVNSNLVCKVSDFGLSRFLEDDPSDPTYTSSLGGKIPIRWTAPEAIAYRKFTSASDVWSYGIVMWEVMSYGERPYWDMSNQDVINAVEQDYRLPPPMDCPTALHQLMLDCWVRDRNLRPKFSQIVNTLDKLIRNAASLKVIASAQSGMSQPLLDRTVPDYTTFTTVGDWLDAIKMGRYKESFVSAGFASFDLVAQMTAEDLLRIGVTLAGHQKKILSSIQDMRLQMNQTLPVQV

[3] = biological target: plurality of kinases (Table 5) (Homo sapiens, UniProt P06239)
plurality of kinases (Table 5) (Homo sapiens, UniProt P06239), sequence (P06239 whole entry): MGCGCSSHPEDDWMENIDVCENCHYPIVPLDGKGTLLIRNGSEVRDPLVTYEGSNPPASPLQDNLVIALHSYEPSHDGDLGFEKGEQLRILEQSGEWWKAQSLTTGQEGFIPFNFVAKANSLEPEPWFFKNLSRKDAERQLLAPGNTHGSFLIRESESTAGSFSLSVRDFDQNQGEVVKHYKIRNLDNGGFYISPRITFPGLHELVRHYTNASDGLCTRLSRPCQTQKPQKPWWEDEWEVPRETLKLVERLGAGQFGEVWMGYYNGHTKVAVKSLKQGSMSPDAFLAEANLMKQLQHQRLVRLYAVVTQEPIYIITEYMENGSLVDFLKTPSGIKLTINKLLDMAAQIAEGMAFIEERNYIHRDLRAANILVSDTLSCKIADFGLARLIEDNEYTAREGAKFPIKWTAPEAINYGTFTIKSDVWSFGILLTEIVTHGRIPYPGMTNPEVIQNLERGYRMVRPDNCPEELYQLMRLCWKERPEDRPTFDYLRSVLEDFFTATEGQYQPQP

[4] = biological target: plurality of kinases (Table 5) (Homo sapiens, UniProt O75914); conditions: plate D4
plurality of kinases (Table 5) (Homo sapiens, UniProt O75914), sequence (O75914 whole entry): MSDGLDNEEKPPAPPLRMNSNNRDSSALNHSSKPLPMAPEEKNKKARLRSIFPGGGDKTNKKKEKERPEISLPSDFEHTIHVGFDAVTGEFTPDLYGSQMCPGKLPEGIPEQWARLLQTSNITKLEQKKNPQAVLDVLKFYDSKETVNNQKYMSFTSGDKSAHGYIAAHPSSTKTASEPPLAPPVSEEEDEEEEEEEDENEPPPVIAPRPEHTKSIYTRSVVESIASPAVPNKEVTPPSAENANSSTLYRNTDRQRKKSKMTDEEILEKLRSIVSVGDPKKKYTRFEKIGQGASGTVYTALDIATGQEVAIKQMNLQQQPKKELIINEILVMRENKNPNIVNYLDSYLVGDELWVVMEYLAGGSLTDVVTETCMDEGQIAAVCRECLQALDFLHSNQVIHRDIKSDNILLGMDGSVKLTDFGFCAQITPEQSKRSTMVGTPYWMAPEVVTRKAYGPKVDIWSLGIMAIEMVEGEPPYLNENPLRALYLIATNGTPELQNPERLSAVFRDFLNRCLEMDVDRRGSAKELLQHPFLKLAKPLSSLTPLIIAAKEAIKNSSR

[5] = biological target: plurality of kinases (Table 5) (Homo sapiens, UniProt Q8IVW4); conditions: plate F12; inhibitor 100 uM
plurality of kinases (Table 5) (Homo sapiens, UniProt Q8IVW4), sequence (Q8IVW4 whole entry): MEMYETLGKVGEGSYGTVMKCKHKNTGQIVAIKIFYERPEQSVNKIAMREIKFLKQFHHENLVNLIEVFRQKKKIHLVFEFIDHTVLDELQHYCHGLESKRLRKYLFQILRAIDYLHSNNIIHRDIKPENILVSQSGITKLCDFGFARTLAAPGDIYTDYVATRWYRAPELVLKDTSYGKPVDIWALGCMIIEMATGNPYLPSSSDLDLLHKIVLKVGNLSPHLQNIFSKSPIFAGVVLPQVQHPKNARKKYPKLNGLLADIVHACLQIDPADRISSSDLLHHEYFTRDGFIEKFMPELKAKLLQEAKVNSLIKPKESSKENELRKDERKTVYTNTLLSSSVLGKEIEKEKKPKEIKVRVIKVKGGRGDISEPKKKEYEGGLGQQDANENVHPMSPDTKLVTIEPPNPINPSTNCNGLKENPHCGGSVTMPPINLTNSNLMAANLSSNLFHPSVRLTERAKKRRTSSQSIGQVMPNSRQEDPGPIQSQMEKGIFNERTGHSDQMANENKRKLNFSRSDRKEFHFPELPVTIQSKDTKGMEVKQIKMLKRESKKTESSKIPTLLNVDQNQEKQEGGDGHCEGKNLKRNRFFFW

[6] = biological target: plurality of kinases (Table 5) (Homo sapiens, UniProt P07948)
plurality of kinases (Table 5) (Homo sapiens, UniProt P07948), sequence (P07948 whole entry): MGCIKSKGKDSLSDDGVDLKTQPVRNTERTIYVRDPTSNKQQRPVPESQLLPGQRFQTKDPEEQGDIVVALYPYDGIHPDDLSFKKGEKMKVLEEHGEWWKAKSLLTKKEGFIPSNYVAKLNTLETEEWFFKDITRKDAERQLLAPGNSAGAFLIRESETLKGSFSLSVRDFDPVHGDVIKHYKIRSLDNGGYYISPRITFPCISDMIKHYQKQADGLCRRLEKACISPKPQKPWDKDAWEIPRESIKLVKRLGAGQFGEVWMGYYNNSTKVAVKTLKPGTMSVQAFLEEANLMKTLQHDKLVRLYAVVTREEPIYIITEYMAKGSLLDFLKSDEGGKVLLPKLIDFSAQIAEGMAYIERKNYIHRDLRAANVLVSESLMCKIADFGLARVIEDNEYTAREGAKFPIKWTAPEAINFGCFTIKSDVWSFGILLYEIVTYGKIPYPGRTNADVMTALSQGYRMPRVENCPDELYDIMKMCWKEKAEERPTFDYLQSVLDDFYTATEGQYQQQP

[7] = biological target: T2, plurality of kinases (Table 5) (Homo sapiens, UniProt P29323); conditions: plate E5
T2 sequence (P29323 19-1055): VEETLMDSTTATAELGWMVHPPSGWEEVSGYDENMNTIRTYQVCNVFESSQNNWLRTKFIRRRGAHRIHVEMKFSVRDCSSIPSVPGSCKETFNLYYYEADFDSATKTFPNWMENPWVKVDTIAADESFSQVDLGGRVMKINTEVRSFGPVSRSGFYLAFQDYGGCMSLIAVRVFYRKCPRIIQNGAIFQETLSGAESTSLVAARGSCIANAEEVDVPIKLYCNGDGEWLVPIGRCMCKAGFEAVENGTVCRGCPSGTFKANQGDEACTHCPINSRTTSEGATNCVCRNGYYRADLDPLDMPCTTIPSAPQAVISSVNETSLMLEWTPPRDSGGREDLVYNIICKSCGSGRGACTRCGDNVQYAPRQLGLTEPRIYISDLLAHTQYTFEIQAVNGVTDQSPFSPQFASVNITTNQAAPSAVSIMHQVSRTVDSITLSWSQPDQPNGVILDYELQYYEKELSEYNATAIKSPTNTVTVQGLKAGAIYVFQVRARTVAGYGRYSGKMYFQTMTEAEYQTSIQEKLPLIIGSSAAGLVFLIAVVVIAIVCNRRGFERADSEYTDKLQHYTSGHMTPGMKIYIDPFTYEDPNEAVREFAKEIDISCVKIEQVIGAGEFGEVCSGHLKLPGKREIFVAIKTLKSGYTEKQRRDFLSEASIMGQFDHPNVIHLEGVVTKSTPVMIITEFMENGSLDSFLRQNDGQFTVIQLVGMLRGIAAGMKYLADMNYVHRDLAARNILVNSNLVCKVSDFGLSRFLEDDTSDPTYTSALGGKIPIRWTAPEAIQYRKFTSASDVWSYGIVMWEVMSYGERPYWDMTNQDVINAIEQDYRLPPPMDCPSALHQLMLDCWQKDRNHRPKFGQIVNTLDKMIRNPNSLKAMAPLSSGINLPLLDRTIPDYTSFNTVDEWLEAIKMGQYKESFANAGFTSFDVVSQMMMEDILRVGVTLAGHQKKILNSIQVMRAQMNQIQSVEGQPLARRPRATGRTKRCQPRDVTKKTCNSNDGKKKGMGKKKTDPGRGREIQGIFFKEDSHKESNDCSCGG

[8] = biological target: plurality of kinases (Table 5) (Homo sapiens, UniProt P68400)
plurality of kinases (Table 5) (Homo sapiens, UniProt P68400), sequence (P68400 whole entry): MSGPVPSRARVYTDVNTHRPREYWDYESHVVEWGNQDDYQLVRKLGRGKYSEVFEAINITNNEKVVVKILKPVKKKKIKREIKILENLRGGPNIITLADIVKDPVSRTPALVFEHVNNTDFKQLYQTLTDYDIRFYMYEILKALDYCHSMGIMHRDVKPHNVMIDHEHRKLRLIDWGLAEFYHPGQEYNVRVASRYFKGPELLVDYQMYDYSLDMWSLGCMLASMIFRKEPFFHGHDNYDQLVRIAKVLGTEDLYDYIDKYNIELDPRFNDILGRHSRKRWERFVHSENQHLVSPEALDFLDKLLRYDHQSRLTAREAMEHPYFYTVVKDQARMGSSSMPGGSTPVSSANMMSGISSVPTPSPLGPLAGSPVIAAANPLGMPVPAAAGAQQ

[9] = biological target: plurality of kinases (Table 5) (Homo sapiens, UniProt P37173); conditions: plate C7
plurality of kinases (Table 5) (Homo sapiens, UniProt P37173), sequence (P37173 23-567): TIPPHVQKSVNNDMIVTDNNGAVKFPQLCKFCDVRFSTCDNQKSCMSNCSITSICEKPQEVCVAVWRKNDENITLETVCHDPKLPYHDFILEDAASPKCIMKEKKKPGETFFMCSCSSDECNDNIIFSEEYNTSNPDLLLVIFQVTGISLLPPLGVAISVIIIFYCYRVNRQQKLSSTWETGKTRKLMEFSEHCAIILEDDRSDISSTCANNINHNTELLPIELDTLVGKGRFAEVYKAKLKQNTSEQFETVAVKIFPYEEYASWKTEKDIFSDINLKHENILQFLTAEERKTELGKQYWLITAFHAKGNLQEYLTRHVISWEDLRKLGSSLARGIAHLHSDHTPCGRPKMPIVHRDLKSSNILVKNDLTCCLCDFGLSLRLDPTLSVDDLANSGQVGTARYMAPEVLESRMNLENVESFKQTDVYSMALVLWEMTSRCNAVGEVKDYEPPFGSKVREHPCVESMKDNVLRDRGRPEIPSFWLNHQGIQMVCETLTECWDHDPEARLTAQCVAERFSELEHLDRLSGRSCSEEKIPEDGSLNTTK

[10] = plate A5, Domain 0, inhibitor 100 uM

SMILES | Inhibition level, FGFR2 ([1]; plate B4, inhibitor 100 uM) | Inhibition level, FGFR2 ([1]; plate G8, inhibitor 100 uM) | Inhibition level, EPHB3 ([2]; inhibitor 100 uM) | Inhibition level, LCK ([3]; plate A6, inhibitor 100 uM) | Inhibition level, PAK3 ([4]; inhibitor 100 uM) | Inhibition level, CDKL3 [5] | Inhibition level, LYN [6, 10] | Inhibition level, EPHB2 ([7]; inhibitor 100 uM) | Inhibition level, CSNK2A1 ([8]; plate D9, inhibitor 100 uM) | Inhibition level, TGFBR2 ([9]; inhibitor 100 uM) | further results
O=c1c(-c2ccc(O)cc2)coc2cc(O)cc(O)c12 [Genistein] | 2 | 2 | 2 | 2 | 2 | 0 | 2 | 2 | 2 | 2 | Inhibition level, FGFR2 ([1]; plate B4, Genistein, conc. not given): 1; Inhibition level, FGFR2 ([1]; plate G8, Genistein <3.7 mM): 0; Inhibition level, EPHB3 ([2]; Genistein, conc. not given): 0; Inhibition level, LCK ([3]; plate A6, Genistein <3.7 mM): 0; Inhibition level, PAK3 ([4]; Genistein, conc. not given): 0; Inhibition level, LYN ([6]; plate A5, Domain 0, Genistein <3.7 mM): 2; Inhibition level, EPHB2 ([7]; Genistein <3.7 mM): 0; Inhibition level, CSNK2A1 ([8]; plate D9, Genistein, conc. not given): 0; Inhibition level, TGFBR2 ([9]; Genistein <3.7 mM): 1
O=S(=O)(NCCNC/C=C/c1ccc(Br)cc1)c1cccc2cnccc12 [H-89] | 2 | 2 | 1 | 2 | 2 | 1 | 2 | 2 | 0 | 2 | –
O=c1c(O)c(-c2ccc(O)c(O)c2)oc2cc(O)cc(O)c12 [Quercetin] | 0 | 0 | 2 | – | 2 | 0 | 2 | 2 | – | 0 | –
COc1cc2ncnc(Nc3cccc(Cl)c3)c2cc1OC [AG 1478] | 2 | 2 | 2 | – | 2 | 1 | 2 | 2 | 2 | 2 | Inhibition level, LCK [3]: 2
N#C/C(=C/c1ccc(O)c(O)c1)C(=O)NCc1ccccc1 [AG 490] | 2 | 2 | 2 | 2 | 1 | 2 | 2 | 2 | 2 | 2 | –
CN[C@@H]1C[C@H]2O[C@@](C)([C@@H]1OC)n1c3ccccc3c3c4c(c5c6ccccc6n2c5c31)C(=O)NC4 [Staurosporine] | – | – | – | – | – | – | – | – | – | – | Inhibition level, EPHB3 ([2]; Staurosporine, conc. not given): 0; Inhibition level, LYN [6]: 0; Inhibition level, CSNK2A1 [8]: 2; Inhibition level, TGFBR2 ([9]; Staurosporine 21.5 uM): 2
Cn1cc(C2=C(c3cn(CCCSC(=N)N)c4ccccc34)C(=O)NC2=O)c2ccccc21 [Ro-31-8220] | 2 | 2 | 2 | 2 | 2 | 2 | 2 | 2 | 2 | 2 | Inhibition level, FGFR2 ([1]; plate B4, Ro-31-8220, conc. not given): 0; Inhibition level, FGFR2 ([1]; plate G8, Ro-31-8220 90 uM): 2; Inhibition level, EPHB3 ([2]; Ro-31-8220, conc. not given): 0; Inhibition level, LCK ([3]; plate A6, Ro-31-8220 90 uM): 0; Inhibition level, PAK3 ([4]; Ro-31-8220, conc. not given): 2; Inhibition level, LYN ([6]; plate A5, Domain 0, Ro-31-8220 90 uM): 0; Inhibition level, EPHB2 ([7]; Ro-31-8220 90 uM): 0; Inhibition level, CSNK2A1 ([8]; plate D9, Ro-31-8220, conc. not given): 0; Inhibition level, TGFBR2 ([9]; Ro-31-8220 90 uM): 2
CC(=O)c1c(O)c(C)c(O)c(Cc2c(O)c3c(c(C(=O)/C=C/c4ccccc4)c2O)OC(C)(C)C=C3)c1O [Rottlerin (Mallotoxin)] | 0 | 2 | 2 | 2 | 0 | 1 | 2 | 2 | 2 | 2 | –
CC(C)(C)n1nc(-c2ccc(Cl)cc2)c2c(N)ncnc21 [PP2] | 2 | 2 | 2 | – | 2 | 2 | 2 | 2 | 2 | 2 | –
